Measurements taken from US4477458A, “Thiazolidine derivatives and their mucolytic compositions and methods” (Camillo Corvi S.p.A., priority 1981, dated 1984).
Counter-ions that a name gives are not always drawn.

What was measured:
[1] = tested on: mucus production of rabbit; test: Activity on mucus production of rabbit (method of R. Scuri and Coll.); assay type: in vivo; conditions: for Mucoproduction at hours 0 - 4: mean ± E.S.; for change in vivo at 400 mg/kg / change in vivo at 600 mg/kg: po
[2] = tested on: gastric mucin of the pig; test: "in vitro" viscosity of gastric mucin of the pig (Contraves Rehomat microviscosimeter); conditions: conc. 2 %; for Viscosity of gastric mucin: 0.1 ml; for Viscosity of gastric mucin, Var. %: vs Mucin + H2O
Protocol: The pharmacological activity was measured by studying the effect on the compound (CO/1177) on: (c) "in vitro" viscosity of gastric mucin of the pig by using, for the viscometer measures, a Contraves Rehomat microviscosimeter at 15 automatic scanning speeds.

[3] = Oryctolagus cuniculus, iv, 10 mg/kg i.v., 0-4 h vs -4-0 h, read-out: Mucoproduction Var. %
[4] = Oryctolagus cuniculus, 400 mg/kg os, 0-4 h vs -4-0 h, read-out: Mucoproduction Var. %
[5] = Oryctolagus cuniculus, 600 mg/kg os, 0-4 h vs -4-0 h, read-out: Mucoproduction Var. %

For `O=C(O)c1ccccc1C(=O)N1CCSC1c1ccccc1` (stereo not drawn) [CO/1220, 2-[(2-phenyl)-1,3-thiazolidin-3-yl]-carbonyl-benzoic acid (Na salt)], the “Mucoproduction at hours 0 - 4” value ([1]; 10 mg/kg i.v.) was 31.300 ± 2.240 mg/h and the change in vivo at 10 mg/kg [1, 3] was 43.5%.
`CCCC1SCCN1C(=O)c1ccccc1C(=O)O` (stereo not drawn) [CO/1226, 2-[(2-propyl)-1,3-thiazolidin-3-yl]-carbonyl-benzoic acid (Na salt)] was tested, and the “Mucoproduction at hours 0 - 4” value ([1]; 10 mg/kg i.v.) was 29.730 ± 4.510 mg/h and the change in vivo at 10 mg/kg [1, 3] was 26.9%.
For `O=C(O)c1cccnc1C(=O)N1CCSC1` [CO/1242, 2-(1,3-thiazolidin-3-yl)-carbonyl-3-pyridine-carboxylic acid (Na salt)], the “Mucoproduction at hours 0 - 4” value ([1]; 10 mg/kg i.v.) was 31.030 ± 2.840 mg/h and the change in vivo at 10 mg/kg [1, 3] was 39%.
`CC(=O)N[C@@H](CS)C(=O)O` [N--Acetylcysteine, reference compound] was tested, and the “Viscosity of gastric mucin” value ([2]; speed 17.4 g/min) was 25.64 cps, the “Viscosity of gastric mucin” value ([2]; speed 25 g/min) was 25.20 cps and the “Viscosity of gastric mucin” value ([2]; speed 33.6 g/min) was 24.30 cps. The “Viscosity of gastric mucin” value ([2]; speed 44.3 g/min) was 23.32 cps, the “Viscosity of gastric mucin” value ([2]; speed 56.1 g/min) was 23.77 cps and the “Viscosity of gastric mucin” value ([2]; speed 77.9 g/min) was 20.30 cps. The “Viscosity of gastric mucin” value ([2]; speed 113.2 g/min) was 19.41 cps, the “Viscosity of gastric mucin” value ([2]; speed 152 g/min) was 17.94 cps and the “Viscosity of gastric mucin” value ([2]; speed 200 g/min) was 16.19 cps. For the same compound, the “Viscosity of gastric mucin” value ([2]; speed 266.8 g/min) was 14.52 cps, the “Viscosity of gastric mucin” value ([2]; speed 352 g/min) was 13.70 cps and the “Viscosity of gastric mucin, Var. %” value ([2]; speed 17.4 g/min) was -11.9%. The “Viscosity of gastric mucin, Var. %” value ([2]; speed 25 g/min) was -8.1%, the “Viscosity of gastric mucin, Var. %” value ([2]; speed 44.3 g/min) was -12.4% and the “Viscosity of gastric mucin, Var. %” value ([2]; speed 56.1 g/min) was -8.1%. The “Viscosity of gastric mucin, Var. %” value ([2]; speed 77.9 g/min) was -11.1%, the “Viscosity of gastric mucin, Var. %” value ([2]; speed 113.2 g/min) was -10.1% and the “Viscosity of gastric mucin, Var. %” value ([2]; speed 152 g/min) was -8%. The “Viscosity of gastric mucin, Var. %” value ([2]; speed 200 g/min) was -11.1%, the “Viscosity of gastric mucin, Var. %” value ([2]; speed 266.8 g/min) was -12.1% and the “Viscosity of gastric mucin, Var. %” value ([2]; speed 352 g/min) was -8.1%. The “Mucoproduction at hours 0 - 4” value ([1]; 5 mg/kg i.v.) was 29.058 ± 0.946 mg/h, the “Mucoproduction at hours 0 - 4” value ([1]; 10 mg/kg i.v.) was 30.988 ± 1.078 mg/h and the “Mucoproduction at hours 0 - 4” value ([1]; 400 mg/kg os) was 22.713 ± 0.947 mg/h. The “Mucoproduction at hours 0 - 4” value ([1]; 600 mg/kg os) was 32.512 ± 1.365 mg/h, the change in vivo at 5 mg/kg ([1]; Oryctolagus cuniculus, iv, 5 mg/kg i.v., 0-4 h vs -4-0 h, read-out: Mucoproduction Var. %) was 29.2% and the change in vivo at 10 mg/kg [1, 3] was 49.8%. It also gave a change in vivo at 400 mg/kg [1, 4] of 4.7% and a change in vivo at 600 mg/kg [1, 5] of 39.4%.
For `N[C@@H](CSCC(=O)O)C(=O)O` [S--Carboxymethylcysteine], the “Mucoproduction at hours 0 - 4” value ([1]; 400 mg/kg os) was 35.339 ± 1.376 mg/h, the “Mucoproduction at hours 0 - 4” value ([1]; 600 mg/kg os) was 32.120 ± 1.630 mg/h and the change in vivo at 400 mg/kg [1, 4] was 31.2%. It also gave a change in vivo at 600 mg/kg [1, 5] of 34.2%.
